Test results taken from patent US20120035187A1 (priority 2009, published 2012).
Like-named read-outs stand apart in the source and are kept apart here.

How the values were obtained:
[1] = system: C57BL/6J mice with cerebrovascular dementia; assay: Novelty object recognition test, mouse with cerebrovascular dementia (ligation of right common carotid artery); type: in vivo; settings: for Object discrimination index: mice with ligation of right common carotid artery, NK-4 i.p. five days a week
[2] = system: PC12-HS cells; settings: 6-hydroxy dopa, 24 hours
Description: 6-Hydroxy dopa was used as a cytotoxic agent. Similarly as in Experiment 1, PC12-HS cells, which had been cultured in D-MEM medium supplemented with 10 v/v % FBS, were inoculated to 96-well microplates by 2×10^4/100 μl/well. […] Thereafter, the cells were fixed with 10% glutaraldehyde and the absorbance at 650 nm was measured by conventional dye-uptake method using methylene blue.

SMILES: CCN1C=CC(=CC=C(C=Cc2cc[n+](CC)c3ccccc23)c2cc[n+](CC)c3ccccc23)c2ccccc21.[I-].[I-] [NK-4]
- adverse effect ([1]; mice with cerebrovascular dementia, i.p. five days a week): No adverse effect
- Object discrimination index ([1]; On the 3rd week after operation): 0.51 ± 0.22
- Object discrimination index ([1]; On the 4th week after operation): 0.31 ± 0.20
- suppression of cytotoxicity by 6-hydroxy dopa (in words) [2]: significantly suppressed
- Survival-cell percentage (%) ([2]; compound 0.83 ng/ml): 59 ± 3%
- Survival-cell percentage (%) ([2]; compound 3.3 ng/ml): 65 ± 4%
- Survival-cell percentage (%) ([2]; compound 13 ng/ml): 69 ± 6 %
- Survival-cell percentage (%) ([2]; compound 50 ng/ml): 70 ± 6 %
- Survival-cell percentage (%) ([2]; compound 200 ng/ml): 76 ± 3 %
- Survival-cell percentage (%) ([2]; compound 800 ng/ml): 92 ± 4 %
